Laboratory results published in publication PMC8885657, “HPV infection alters vaginal microbiome through down-regulating host mucosal innate peptides used by Lactobacilli as amino acid sources” (Nature Communications, 2022).
Where no end group is shown, it is not given here.

Legend:
[1] = tested on: Lactobacillus crispatus DSM 20356; assay: Antimicrobial assay (surviving colonies, CFU count); type: cell-based; details: peptides pre-incubated with 2 mM DTT 30 min 37 °C; 6 h with bacteria; n = 6
Description: Bacterial strains Lactobacillus crispatus DSM 20356, Lactobacillus iners CIP 105923 and Garnerella vaginalis CCUG 43336 were kindly provided by the Department of Clinical Microbiology at University Hospital Center of Liege. Lactobacillus jensenii LMG 6414 was obtained from BCCM/LMG Bacteria Collection (University of Gent, Belgium). Log-phase bacteria were grown on Columbia agar with 5% sheep blood (Becton Dickinson, Franklin Lakes, NJ, USA) at 37 °C in a humidified CO2 atmosphere (Lactobacilli) or in anaerobic jars (G. vaginalis). To analyze the antimicrobial effect of innate peptides expressed by vaginal/cervical mucosa, 5 × 10^4 colony-forming unit (CFU)/ml were mixed with different peptides (concentration range: 1–10 µg/ml) in 10 mM sodium phosphate buffer (SPB) (final volume 100 µl) and incubated for 45 min to 9 h at 37 °C. Where indicated, the peptides were incubated with 2 mM dithiothreitol (DTT) (Invitrogen, Carlsbad, CA, USA) for 30 min at 37 °C before adding the bacteria. In indicated experiments, incubation was carried out in potassium phosphate buffer (KPB) (pH: 7.4, 10 mM). The following peptides were tested: HβD1 (PeptaNova, Sandhausen, Germany), HβD2 (PeptaNova), HβD3 (PeptaNova), HβD4 (PeptaNova), HD-5 (PeptaNova), HD-6 (PeptaNova), elafin (PeptaNova), S100A7 (Abnova, Taipei City, Taiwan) and SLPI (R&D Systems, Minneapolis, MI, USA). Bacterial suspensions were then plated on Columbia Blood agar plates for 24–48 h to determine CFU. High-resolution images for each condition were taken. Colony detection and counts were finally performed using ImageJ software (NIH, Bethesda, MD, USA) and verified by manual counting.

[2] = tested on: innate peptide mRNA (SLPI, S100A7, Elafin, HBD1-4, HD-5, HD-6) in CTRL and E6E7 cells; assay: RT-qPCR of innate peptide expression in CTRL and E6E7 keratinocytes, Control / LPS / TNF alpha (Fig 2D); type: cell-based, human;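 further: mRNA level normalized to HPRT mRNA of the same sample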
[3] = tested on: defensin/elafin mRNA in immortalized human keratinocytes (HaCaT cells); assay: RT-qPCR of innate peptide expression in non-infected immortalized keratinocytes (TNFα/LPS, siRNA, inhibitors); type: cell-based; details: for Elafin expression / HBD2 expression / HBD3 expression / HBD4 expression: siGL3, TNF alpha +

## HβD3: epithelial member of the defensin family, host defense peptide (PeptaNova) (GIINTLQKYYCRVRGGRCAVLSCLPKEEQIGKCSTRGRKCCRRKK; not fully specified; ends and bridges not checked; UniProt P81534 23-67, looked up)
[1]
  antimicrobial/protective activity in reducing environment: slight increase in the antibacterial activity

## TNFα
[2]; CTRL cells, replicate 1
  Elafin expression: 5.073
  HBD1 expression: 0.2367
  HBD2 expression: 3.658
  HBD3 expression: 3.171
  HBD4 expression: 2.287
  HD-5 expression: 0.3567
  HD-6 expression: 1.388
  S100A7 expression: 0.722
  SLPI expression: 0.646
[2]; CTRL cells, replicate 2
  Elafin expression: 4.065
  HBD1 expression: 1.168
  HBD2 expression: 4.597
  HBD3 expression: 4.307
  HBD4 expression: 2.172
  HD-5 expression: 2.274
  HD-6 expression: 2.604
  S100A7 expression: 0.3271
  SLPI expression: 2.0642
[2]; CTRL cells, replicate 3
  Elafin expression: 7.706
  HBD1 expression: 0.2415
  HBD2 expression: 6.118
  HBD3 expression: 2.998
  HBD4 expression: 5.397
  HD-5 expression: 2.494
  HD-6 expression: 1.116
  S100A7 expression: 1.785
  SLPI expression: 1.2988
[2]; CTRL cells, replicate 4
  Elafin expression: 14.6325
  HBD1 expression: 1.1843
  HBD2 expression: 11.5149
  HBD3 expression: 3.1783
  HBD4 expression: 3.11
  HD-5 expression: 8.229
  HD-6 expression: 1.904
  S100A7 expression: 0.4855
  SLPI expression: 0.7519
[2]; E6E7 cells, replicate 1
  Elafin expression: 0.006506
  HBD1 expression: 0.08614
  HBD2 expression: 2.123
  HBD3 expression: 0.6511
  HBD4 expression: 0.3771
  HD-5 expression: 0.1042
  HD-6 expression: 1.213
  S100A7 expression: 1.453e-5
  SLPI expression: 0.0293
[2]; E6E7 cells, replicate 2
  Elafin expression: 0.03758
  HBD1 expression: 0.1065
  HBD2 expression: 0.4899
  HBD3 expression: 2.311
  HBD4 expression: 0.789
  HD-5 expression: 1.126
  HD-6 expression: 0.08436
  S100A7 expression: 1.453e-5
  SLPI expression: 0.1199
[2]; E6E7 cells, replicate 3
  Elafin expression: 0.01347
  HBD1 expression: 0.06181
  HBD2 expression: 2.314
  HBD3 expression: 0.09282
  HBD4 expression: 1.611
  HD-5 expression: 0.8629
  HD-6 expression: 0.3418
  S100A7 expression: 8.731e-6
  SLPI expression: 0.005195
[2]; E6E7 cells, replicate 4
  Elafin expression: 0.01173
  HBD1 expression: 0.009073
  HBD2 expression: 0.5342
  HBD3 expression: 0.8751
  HBD4 expression: 0.9721
  HD-5 expression: 1.847
  HD-6 expression: 0.557
  S100A7 expression: 8.0162e-6
  SLPI expression: 0.029
[3]; immortalized keratinocytes, TNFα 20 ng/ml, normalized to HPRT, n = 4
  HβD2-4 expression (RT-qPCR): highly stimulated
[3]; replicate 1
  Elafin expression: 6.99
  HBD2 expression: 14.1
  HBD3 expression: 4.31
  HBD4 expression: 5.27
[3]; replicate 2
  Elafin expression: 3.11
  HBD2 expression: 7.45
  HBD3 expression: 7.5
  HBD4 expression: 1.23
[3]; replicate 3
  Elafin expression: 6.23
  HBD2 expression: 7.27
  HBD3 expression: 4.03
  HBD4 expression: 3.86
